Test results as given in publication PMC4793208 (RNA, 2016).

Experiments:
[1] = biological target: T1, S. pombe Dcp1/2 (Schizosaccharomyces pombe, UniProt O13828); assay type: biochemical
T1 sequence (O13828 1-243 limits assumed): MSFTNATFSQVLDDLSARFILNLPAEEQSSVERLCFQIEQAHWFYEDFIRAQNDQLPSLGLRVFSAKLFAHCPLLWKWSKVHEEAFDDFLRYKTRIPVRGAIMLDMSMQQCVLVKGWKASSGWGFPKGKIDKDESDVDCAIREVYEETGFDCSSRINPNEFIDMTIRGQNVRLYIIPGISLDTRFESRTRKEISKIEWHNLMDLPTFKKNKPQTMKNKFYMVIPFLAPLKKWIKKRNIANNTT
T1 sequence (Q9P805 1-127 partner): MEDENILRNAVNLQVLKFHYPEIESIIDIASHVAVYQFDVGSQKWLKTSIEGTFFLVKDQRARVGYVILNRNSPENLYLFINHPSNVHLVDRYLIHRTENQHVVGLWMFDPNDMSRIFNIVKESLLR

[2] = biological target: T2, SpDcp1/2 (Schizosaccharomyces pombe, UniProt O13828); test: Single-turnover kinetic inhibition assay, SpDcp1/2, 29-nt native-capped RNA; assay type: biochemical; settings: read-out: KI (affinity for the free enzyme), Dcp1/2 complex, subsaturating enzyme
T2 sequence (O13828 1-243): T1 sequence (O13828 1-243 limits assumed)
T2 sequence (Q9P805 1-127 partner): T1 sequence (Q9P805 1-127 partner)

| Compound | inhibitory properties towards Dcp1/2 decapping (in words) [1] | Ki [2] |
| --- | --- | --- |
| CO[C@H]1[C@@H](O)[C@H]([n+]2cn(C)c3c(=O)[nH]c(N)nc32)O[C@@H]1COP(=O)([O-])OP(=O)(O)OP(=O)(O)OC[C@H]1O[C@@H](n2cnc3c(=O)[nH]c(N)nc32)[C@H](O)[C@@H]1O [Compound 16, m2^7,3′-OGpppG] | poor Dcp1/2 inhibitors | – |
| C[n+]1cn([C@@H]2O[C@H](COP(=O)(O)OP(=O)([O-])OP(=O)(O)OP(=O)(O)OC[C@H]3O[C@@H](n4cnc5c(=O)[nH]c(N)nc54)[C@H](O)[C@@H]3O)[C@@H](O)[C@H]2O)c2nc(N)nc(O)c21 [Compound 17, m^7GppppG] | minimal | – |
| Nc1ncnc2c1ncn2[C@@H]1O[C@H](COP(=O)(O)OP(=O)(O)OP(=O)(O)O)[C@@H](O)[C@H]1O [Compound 18, ATP] | poor Dcp1/2 inhibitors | – |
| Nc1nc2c(ncn2[C@@H]2O[C@H](COP(=O)(O)OP(=O)(O)OP(=O)(O)O)[C@@H](O)[C@H]2O)c(=O)[nH]1 [Compound 19, GTP] | poor Dcp1/2 inhibitors | – |
| Cn1c[n+]([C@@H]2O[C@H](COP(=O)(O)OP(=O)([O-])OP(=O)(O)OC[C@H]3O[C@@H](n4cnc5c(=O)[nH]c(N)nc54)[C@H](O)[C@@H]3O)[C@@H](O)[C@H]2O)c2nc(N)[nH]c(=O)c21 [m^7GpppG] | – | 1400 ± 300 µM |
